For this experiment, the species on record is Rattus norvegicus. In words: Dose required to prevent loss of total bone mineral density of rat distal femur. The format is functional.

The molecule `Cl.Oc1ccc2c(c1)CCC21C=C(c2ccc(OCCN3CCCCC3)cc2)c2cc(O)ccc21` (single isomer, unassigned; (+)) yielded a Dose of 0.1 mg/kg/day.

The record behind these values is ChEMBL document CHEMBL1145078, “Discovery and preclinical characterization of (+)-3-[4-(1- piperidinoethoxy)phenyl]spiro[indene- 1,1'-indane]-5,5'-diol hydrochloride: a promising nonsteroidal estrogen receptor agonist for hot flush” (J Med Chem, 2003).
